Consider one molecule from patent US10857136B2, “Compounds for use in the prevention and/or treatment of non-alcoholic fat liver disease and non-alcoholic steatohepatitis” (SJT MOLECULAR RESEARCH, SL, priority 2017, dated 2020).

Test [1] concerns DIO-NASH mice (C57Bl/6J male mice). In words: Total fat content in liver (morphometry, H&E), 8 weeks assay in DIO-NASH mice. It counts as in vivo. As to conditions: 50 mg/kg, p.o., b.i.d., vs DIO-NASH vehicle. From the text: The DIO-NASH mouse model is fed a high fat diet that results on non-alcoholic fat liver disease and are based on C57Bl/6J mice put on a 40% high fat diet prior to the assays. For the assessment of effect of the compounds of the invention in liver lipid content in non-alcoholic fat liver disease, 34 C57Bl/6J male mice (5-week-old at delivery), obtained from Janvier, France, were used. The DIO-NASH mice group were put on high fat diet (40% AMLN diet, D09100301 Research Diets, USA) and a control group (LEAN-CHOW) was put on a regular chow diet (Altromin 1324, Brogaarden, Denmark) for 35 weeks prior to the study.
The animals (kept in single housings) were checked minimum once daily where signs of abnormal behavior, abnormal locomotor activity, ataxia or clinical signs of disease (lack of grooming, raised fur, signs of pain upon handling, loss of excessive body-weight) were followed closely. […]
To assess the effect of compound 4a on hepatic lipid content in mice with non-alcoholic fat liver disease, DIO-NASH mice (C57Bl/6J male mice) were treated with a hydrochloride salt of compound 4a during 8 weeks (50 mg/kg, p.o., b.i.d.), versus a control of DIO-NASH mice treated with saline (0.9% NaCl) and versus LEAN-CHOW mice also treated with saline (0.9% NaCl), […]. Liver lipid content was determined by morphometry. […]

In test [2] the test system is DIO mice (C57Bl/6 J male mice). In words: Liver lipid content, 36 days assay in DIO mice (colorimetric kits). In kind it is in vivo. As to conditions: 50 mg/kg orally twice daily, after 36 days, vs saline control. On the procedure:
To assess the performance of the compounds disclosed in decreasing hepatic lipid content, DIO mice (C57Bl/6 J male mice) were treated with a hydrochloride salt of compound 4a; and with compound 7a during 36 days, versus a control of DIO mice treated with saline (0.9% NaCl) and versus DIO mice treated with Metformin as a positive control.
For the assessment, 60 C57Bl/6 J male mice (16-week-old at delivery and 40 g of average weight), obtained from Charles River France, were put on high fat diet for 10 weeks. The animals were housed in ventilated and enriched housing cages (310×125×127 mm^3) throughout the experimental phase. Animals' cages litters were changed at least once a week. Mice were housed in groups of 10 mice on a normal 12 hours light cycle (at 08:00 pm lights were switched off), at 22±2° C. and 50±10% relative humidity. After reception, mice were maintained for three additional acclimation weeks. During the whole assessment (acclimation+treatment phase) a high fat diet (D12492 purchased from Research Diet Inc; 60% fat) and tap water were provided ad libitum.
After the acclimation period, mice were fasted for 6 hours and blood glucose and plasma insulin were measured. Ten animals, those with lower blood glucose/plasma insulin, were discarded from the study. Then, the others were randomized into 5 homogenous groups (n=10 mice per group) according to their blood glucose/plasma insulin levels (HOMA-IR) and body weight. Mice were treated orally twice daily for 36 days with either saline solution (control group), SJT test compound (4a, 7a; 50 mg/kg) or metformin (150 mg/kg).
Finally, mice were sacrificed, and liver was collected, weighted and stored at −80° C. for additional analysis. Liver samples were dissected for liver lipids assay. Liver lipids were assayed using colorimetric commercial assay kits, from liver samples homogenate after lipid solubilization in deoxycholate as described by Miao et al., J Lipid Res, 2004, 45, 1410-17. Samples were homogenized with an ultrasound probe with 500 μl distilled water during few seconds. Then cholic acid at 1% is added to make lipids soluble. The measurement of the different lipids was then performed using colorimetric kits from Sobioda, France.

For `COc1ccc(-c2nc(C(=O)NCCN)cc3c2[nH]c2ccccc23)cc1` [Compound 4a, N(-ethylamine)-1-benzosubstituted-β-carboline-3-carboxamide], the “steatosis in representative images of liver morphology (H&E)” value in test [1] is recorded as “diminished the steatosis”. Besides, the “liver lipid content (steatosis) determined by morphometry” value in test [1] (p<0.001) is reported as “reduced liver lipid content”. In addition, in test [2], the hepatic cholesterol entry is given as “lower lipid levels than untreated control animals”, the hepatic fatty acids entry is “lower lipid levels than untreated control animals” and the hepatic triglycerides entry is “lower lipid levels than untreated control animals”.
